Data as given in article PMC11744973, “Optimized extraction and kinetic study of cholesterol oxidase from a newly isolated Escherichia fergusonii strain from local whey samples: insights through a combined experimental study and artificial neural network modeling” (BMC Microbiology, 2025).

Test system: T1, cholesterol oxidase (ChoX, ChOx)
T1 construct: native extracellular enzyme purified from culture supernatant (ammonium sulfate, Q-Sepharose)
Assay: HRP-coupled 4-aminoantipyrine/phenol quinoneimine assay at […] nm, Lineweaver-Burk
Type: biochemical, Escherichia fergusonii
Conditions: optimum conditions (30 °C, pH 7.5, in the presence of MgSO4 per abstract); KPB; cholesterol 0.1-3.0 mM in Triton X-100; O2 co-substrate

Which Km does the source give for `CC(C)CCC[C@@H](C)[C@H]1CC[C@H]2[C@@H]3CC=C4C[C@@H](O)CC[C@]4(C)[C@H]3CC[C@]12C` [cholesterol] here?
The Km was 710 µM.
